Measurements taken from patent US7087627B1, “Combinations for the treatment of diseases involving angiogenesis” (Angiogene Pharmaceuticals Ltd., priority 1999, dated 2006).

How the values were obtained:
[1] = system: SaS tumours; test: Induction of necrosis in SaS tumours; format: in vivo; settings: SaS tumour-bearing mice, tumours excised after 24 h, mean score 1-10 by area of necrosis
Protocol: Mice bearing either CaNT or SaS tumours were treated with the test compound and tumours excised after 24 h, fixed in formalin, embedded in paraffin, sectioned and stained with haematoxylin and eosin. Sections were scored based on area of necrosis as follows:
In this assay the effect of a given dose of either a vascular damaging agent or a nitric oxide synthase inhibitor administered alone can be compared with the effect of a combination of the two agents.

[2] = system: CaNT tumours; test: Tumour functional vascular volume measured by fluorescent dye Hoechst 33342; format: in vivo; settings: CaNT tumour-bearing mice; CA4P 25 mg/kg alone, intra peritoneal; 24 hours after treatment
Protocol: Activity Against Tumour Vasculature Measured by Fluorescent Dye.
Tumour functional vascular volume in CaNT tumour-bearing mice was measured using the fluorescent dye Hoechst 33342 according to the method of Smith et al (Brit J Cancer 57, 247–253, 1988). The fluorescent dye was dissolved in saline at 6.25 mg/ml and injected intravenously at 10 mg/kg 24 hours after intra peritoneal drug treatment. One minute later, animals were killed and tumours excised and frozen; 10 μm sections were cut at 3 different levels and observed under UV illumination using an Olympus microscope equipped with epifluorescence. Blood vessels were identified by their fluorescent outlines and vascular volume was quantified using a point scoring system based on that described by Chalkley, (J Natl Cancer Inst, 4, 47–53, 1943). All estimates were based on counting a minimum of 100 fields from sections cut at the 3 different levels.

| Structure (SMILES) | Necrosis score ± SEM (n) ([1]; AMP 10 mg/kg alone) | Necrosis score ± SEM (n) ([1]; CA4P 500 mg/kg alone) | Vascular Volume % ± SEM (n) [2] |
| --- | --- | --- | --- |
| Cc1ccnc(N)c1 [AMP, 2-amino-4-methylpyridine] | 1.0 |  |  |
| COc1ccc(/C=C\c2cc(OC)c(OC)c(OC)c2)cc1OP(=O)(O)O [CA4P, Combretastatin A4 phosphate] |  | 1.7 ± 0.7 | 1.03 ± 0.14 (4) % |
